Reference: patent publication US10035814B2, “Guanine analogs as telomerase substrates and telomere length affectors” (Geron Corporation, priority 2011, dated 2018)
Where “and” joins values, the source holds several entries; their conditions need not be identical. Identical values can stand only once.

Tests used:
telomerase in HT3 cells = telomerase in HT3 cells (Homo sapiens (Human), UniProt O14746); test: Ex vivo TRAP assay in HT3 cells; type: cell-based; conditions: Table 8, assay not given; repeat determinations, values coincide with Ex Vivo TRAP; read-out: EC50
telomerase in HT3 cells, sequence (O14746 whole entry): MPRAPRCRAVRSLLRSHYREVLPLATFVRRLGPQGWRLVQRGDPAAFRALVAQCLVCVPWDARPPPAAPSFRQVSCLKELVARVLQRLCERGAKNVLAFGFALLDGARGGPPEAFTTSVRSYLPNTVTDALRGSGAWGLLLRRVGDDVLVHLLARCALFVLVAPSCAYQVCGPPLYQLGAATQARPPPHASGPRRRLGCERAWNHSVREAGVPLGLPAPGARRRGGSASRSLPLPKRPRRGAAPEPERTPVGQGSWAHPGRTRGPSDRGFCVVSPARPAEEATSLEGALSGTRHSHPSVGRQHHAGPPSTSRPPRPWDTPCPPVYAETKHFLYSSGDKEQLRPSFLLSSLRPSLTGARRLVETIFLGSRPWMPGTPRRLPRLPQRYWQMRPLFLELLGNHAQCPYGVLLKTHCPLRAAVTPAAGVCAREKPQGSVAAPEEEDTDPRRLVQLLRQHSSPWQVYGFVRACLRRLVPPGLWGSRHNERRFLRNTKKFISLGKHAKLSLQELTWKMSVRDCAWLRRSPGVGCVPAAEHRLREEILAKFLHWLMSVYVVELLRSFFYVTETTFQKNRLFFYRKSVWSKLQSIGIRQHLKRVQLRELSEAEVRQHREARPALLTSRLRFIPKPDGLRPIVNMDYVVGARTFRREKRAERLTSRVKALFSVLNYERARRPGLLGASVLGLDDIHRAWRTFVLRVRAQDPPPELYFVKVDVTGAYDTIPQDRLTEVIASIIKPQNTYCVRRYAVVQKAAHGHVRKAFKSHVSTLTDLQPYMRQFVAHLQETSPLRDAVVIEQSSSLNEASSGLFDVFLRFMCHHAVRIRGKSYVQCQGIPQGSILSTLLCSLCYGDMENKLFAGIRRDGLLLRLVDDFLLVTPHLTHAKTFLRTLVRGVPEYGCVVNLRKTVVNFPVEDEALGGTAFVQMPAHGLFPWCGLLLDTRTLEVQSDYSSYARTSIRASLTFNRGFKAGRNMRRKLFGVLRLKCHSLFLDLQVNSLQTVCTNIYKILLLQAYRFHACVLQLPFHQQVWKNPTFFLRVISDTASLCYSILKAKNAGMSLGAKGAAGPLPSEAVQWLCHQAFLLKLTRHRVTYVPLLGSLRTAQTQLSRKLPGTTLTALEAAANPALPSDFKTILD
telomerase in HT3 cells, sequence (O60832 whole entry partner): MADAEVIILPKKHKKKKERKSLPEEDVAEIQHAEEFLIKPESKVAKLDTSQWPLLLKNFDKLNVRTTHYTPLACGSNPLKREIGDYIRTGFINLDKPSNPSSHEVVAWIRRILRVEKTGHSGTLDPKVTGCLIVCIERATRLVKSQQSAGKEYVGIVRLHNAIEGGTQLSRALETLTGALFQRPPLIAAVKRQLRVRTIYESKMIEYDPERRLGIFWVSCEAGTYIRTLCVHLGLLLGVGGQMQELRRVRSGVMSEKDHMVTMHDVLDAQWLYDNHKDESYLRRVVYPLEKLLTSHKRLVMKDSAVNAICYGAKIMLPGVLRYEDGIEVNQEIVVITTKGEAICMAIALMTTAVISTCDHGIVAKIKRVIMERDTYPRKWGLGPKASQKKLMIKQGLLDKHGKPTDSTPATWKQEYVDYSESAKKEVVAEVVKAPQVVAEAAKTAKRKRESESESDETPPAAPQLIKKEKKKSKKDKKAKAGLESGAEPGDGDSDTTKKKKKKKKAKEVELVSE
telomerase in HT3 cells, sequence (Q9NX24 whole entry partner): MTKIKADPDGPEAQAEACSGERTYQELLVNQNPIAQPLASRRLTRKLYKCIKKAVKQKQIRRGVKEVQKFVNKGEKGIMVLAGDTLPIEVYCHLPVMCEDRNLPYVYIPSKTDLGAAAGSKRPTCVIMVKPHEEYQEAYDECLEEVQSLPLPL
telomerase in HT3 cells, sequence (Q9NPE3 whole entry partner): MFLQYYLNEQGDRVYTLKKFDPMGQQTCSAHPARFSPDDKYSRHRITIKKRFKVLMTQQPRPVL
telomerase in HT3 cells, sequence (Q9NY12 whole entry partner): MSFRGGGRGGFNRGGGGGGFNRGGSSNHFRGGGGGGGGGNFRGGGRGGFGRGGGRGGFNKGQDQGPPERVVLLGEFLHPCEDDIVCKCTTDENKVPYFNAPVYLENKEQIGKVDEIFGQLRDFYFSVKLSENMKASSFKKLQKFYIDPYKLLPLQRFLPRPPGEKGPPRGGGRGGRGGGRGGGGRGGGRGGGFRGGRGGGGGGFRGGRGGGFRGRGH
telomerase in HT3 cells, sequence (Q9BUR4 whole entry partner): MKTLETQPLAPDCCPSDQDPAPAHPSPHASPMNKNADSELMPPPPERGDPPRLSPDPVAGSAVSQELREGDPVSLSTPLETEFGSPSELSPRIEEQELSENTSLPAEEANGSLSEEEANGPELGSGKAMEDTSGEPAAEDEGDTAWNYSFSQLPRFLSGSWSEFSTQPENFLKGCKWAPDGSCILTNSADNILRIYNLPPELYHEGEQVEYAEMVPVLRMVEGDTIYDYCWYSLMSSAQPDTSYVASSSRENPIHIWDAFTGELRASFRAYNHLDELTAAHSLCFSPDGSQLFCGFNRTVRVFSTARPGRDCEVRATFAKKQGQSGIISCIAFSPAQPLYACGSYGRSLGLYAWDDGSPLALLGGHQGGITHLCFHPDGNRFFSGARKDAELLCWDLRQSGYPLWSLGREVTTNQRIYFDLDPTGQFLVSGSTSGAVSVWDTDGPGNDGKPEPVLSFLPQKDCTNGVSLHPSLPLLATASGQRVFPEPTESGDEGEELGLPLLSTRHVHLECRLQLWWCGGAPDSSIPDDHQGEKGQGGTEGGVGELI
Method: HT3 cells were treated for three days with increasing concentrations of PMPG-diisopropyloxy ester ranging from 0.2 μM to 20 μM. Cells (HT3 RPMI+10% PBS) were incubated with compound for 24 hr after which PSTS primer (phosphorothioate-d(AATCCGTCGAGCAGAGTT (SEQ ID NO: 6) containing a 5′ Cy-5 label) (7.5 μM) and fresh compound are added for an additional 24 hr. Cells were lysed and endogenous telomerase inactivated by heating (15 min, 75° C.). Products were amplified by 30 cycles of PCR under TRAP conditions set forth above and quantified. The results of two independent experiments are shown in Table 4.
HT3 cells were treated for three days with increasing concentrations of one or more of the indicated compounds ranging from 0.2 μM to 20 μM. Cells (HT3 RPMI+10% FBS) were incubated with compound for 24 hours, after which PSTS primer (phosphorothioate-d AATCCGTCGAGCAGAGTT (SEQ ID NO: 6) containing a 5′ Cy-5 label) (7.5 μM) and fresh compound were added for an additional 24 hours. Cells were lysed and endogenous telomerase inactivated by heating (15 minutes, 75° C.). Products were amplified by 30 cycles of PCR under TRAP conditions set forth in Kim et al., Science 266:2011, […] (which reference is incorporated herein in its entirety) and quantified.

[1] = Cytotoxicity in cell culture (cells not named); type: cell-based
Caki-1 cells = test: Caki-1 tumor growth in SCID hairless outbred (SHO) mice; type: in vivo; conditions: for tumor growth compared to vehicle control: 30 mg/kg intraperitoneal; for Intercept coefficient of linear transformed tumor growth curve / Slope coefficient of linear transformed tumor growth curve: linear mixed effects model, change versus vehicle
Method: Low-passage Caki-1 cells were injected subcutaneously into the flank of SCID hairless outbred (SHO) mice receiving 30 mg/kg of one of the following via intraperitoneal injection: vehicle (PBS with 0.4% Tween 20), Imetelstat (163 L), PMPG free acid (ID#142693), or PMPG prodrug (ID#142715). Calipers were used to measure tumor length and width bi-weekly, and tumor volume was calculated. Once a tumor had grown >50 mm^3, the animal was randomly entered into a study group, either control or treatment. Animals received 30 mg/kg compound via intraperitoneal injection for the duration of the study. The control vehicle was PBS with 0.4% Tween 20. Tumor volume was measured bi-weekly, and animals were sacrificed either when tumor size was >2000 mm^3 or at defined study completion date.
At the conclusion of the study, a linear transformation of the tumor growth curves was performed. The slope of the growth curves for each treatment group was derived by using a linear mixed effects model. The Y-intercept was used to confirm random tumor starting size at the time of animals entering into the study.

A549 cells = test: Telomere repeat fragment (TRF) assay using A549 cells; type: cell-based; conditions: approximately 70 population doublings
Method: (§1) Approximately 1-2 μg of genomic DNA from each cell line or tissue was digested by Hinf/RsaI for 2 hours at 37° C. Following DNA digestion, the genomic DNA fragments were separated on a 0.8% agarose gel and transferred to a nylon membrane by blotting. All membrane hybridization and detection reagents were provided in the TeloTAGGG Telomere Length Assay kit (Roche Diagnostics, Mannheim Germany). The blotted membranes were hybridized with digoxigenin (DIG)-labeled PNA probe specific for telomeric repeats, followed by incubation with anti-DIG-antibody-alkaline phosphatase according to the manufacturer's instructions. Alkaline phosphatase was quantified using the chemiluminescent substrate. Telomere lengths were calculated according to the manufacturer's instruction.
Lane 1 is a ladder from 21.2 kb to 1.9 kb. Lanes 2 and 3 have 10 μM and 5 μM, respectively, of PMPG free acid (ID#142693). Lanes 4 to 6 have 10 μM, 5 μM, and 2.5 μM, respectively, of PMPG prodrug (ID#142715). Lane 7 has 2 μM of Imetelstat (163 L). Lane 8 has 2 μM of a mismatch. Lanes 9 and 10 have 20 μM and 10 μM, respectively, of PMIBeG free acid [(((2-((2-amino-6-oxo-1H-purin-9(6H)-yl)methyl)allyl)oxy)methyl)phosphonic acid] (ID#142811). Indicated amounts each compound were added to A549 cells. After approximately 70 population doublings, the cells were harvested and telomere lengths determined using TRF. The estimated average telomere lengths were: (1) MM/mismatch control: 7 kb; (2) Imetelstat/163 L: 4.3 kb; (3) PMPG prodrug (10 μM and 5 μM): 4 kb; (4) PMPG free acid (5 μM and 10 μM): 4 kb; (5) PMIBeG prodrug (50 μM): 4.3 kb; (6) PMIBeG free acid (20 μM): 5 kb.

RPE-64-tv cells = test: Cytotoxicity in RPE-64-tv cells; type: cell-based
immortal U87 cells = test: Telomere repeat fragment (TRF) assay using immortal U87 cells; type: cell-based; conditions: concentration not given at the value, approximately 20 population doublings
Method: as §1
Telomere repeat fragment assays using immortal U87 cells were performed. 10 μM or 20 μM PMIBeG prodrug (ID#142820) or PMPG prodrug (ID#142715) were added to the cells. Imetelstat (163 L) was used as a reference and a mismatch was used as a negative control. After approximately 20 population doublings, the cells were harvested and telomere lengths determined using TRF. The estimated average lengths were: (1) mismatch control: 5 kb; (2) Imetelstat (163 L): 3.5 kb; (3) PMIBeG prodrug (ID#142820) at 20 μM: 4 kb; (4) PMIBeG prodrug (ID#142820) at 10 μM: 4.1 kb; (5) PMPG prodrug (ID#142715): 3.5 kb.

[2] = Day 10, 30 mg/kg intraperitoneal
[3] = Day 20, 30 mg/kg intraperitoneal
[4] = Day 30, 30 mg/kg intraperitoneal
[5] = Day 40, 30 mg/kg intraperitoneal
[6] = Day 50, 30 mg/kg intraperitoneal
[7] = Day 60, 30 mg/kg intraperitoneal

Compound | tumor growth compared to vehicle control (Caki-1 cells) | tumor volume (Caki-1 cells; [2]) | tumor volume as a percentage of the tumor volume of control vehicle mice (Caki-1 cells; [2]) | tumor volume (Caki-1 cells; [3]) | tumor volume as a percentage of the tumor volume of control vehicle mice (Caki-1 cells; [3]) | tumor volume (Caki-1 cells; [4]) | tumor volume as a percentage of the tumor volume of control vehicle mice (Caki-1 cells; [4]) | tumor volume (Caki-1 cells; [5]) | tumor volume as a percentage of the tumor volume of control vehicle mice (Caki-1 cells; [5]) | tumor volume (Caki-1 cells; [6]) | tumor volume as a percentage of the tumor volume of control vehicle mice (Caki-1 cells; [6]) | tumor volume (Caki-1 cells; [7]) | tumor volume as a percentage of the tumor volume of control vehicle mice (Caki-1 cells; [7]) | Intercept coefficient of linear transformed tumor growth curve (Caki-1 cells) | Slope coefficient of linear transformed tumor growth curve (Caki-1 cells) | also measured
CC(Cn1cnc2c(=O)[nH]c(N)nc21)OCP(=O)(O)O (single isomer, unassigned) [ID#142693, R-(((Guanine-9-yl)propan-2-oxy)methyl) phosphonic acid] | reduction in tumor growth | 165.1 mm^3 | 91% | 330.8 mm^3 | 83% | 581.3 mm^3 | 78% | 934.3 mm^3 | 75% | 1407.2 mm^3 | 73% | 2017.6 mm^3 | 71% | 0.096 | −0.027 | EC50 (telomerase in HT3 cells): 11700 nM and 2500 nM and 1500 nM; cytotoxicity ([1]; 200 uM): acutely cytotoxic; cytotoxicity ([1]; therapeutic doses (10 μM and 20 μM)): minimal cytotoxicity; estimated average telomere length (A549 cells; 10 μM and 5 μM): 4 kb
C=C(COCP(=O)(O)O)Cn1cnc2c(=O)[nH]c(N)nc21 [ID#142811, (((2-((2-amino-6-oxo-1H-purin-9(6H)-yl)methyl)allyl)oxy)methyl)phosphonic acid] |  |  |  |  |  |  |  |  |  |  |  |  |  |  |  | cytotoxicity compared with PMPG (RPE-64-tv cells): less cytotoxic than PMPG; effect on tissue culture (RPE-64-tv cells; 200 μM): no effect on tissue culture; estimated average telomere length (A549 cells; 20 μM): 5 kb
Imetelstat [reference compound] | reduction in tumor growth | 146.0 mm^3 | 81% | 293.5 mm^3 | 74% | 517.0 mm^3 | 70% | 832.2 mm^3 | 67% | 1254.8 mm^3 | 65% | 1800.7 mm^3 | 63% | −0.074 | −0.032 | estimated average telomere length (A549 cells; 2 μM): 4.3 kb; estimated average telomere length (immortal U87 cells): 3.5 kb
